From ChEMBL document CHEMBL4507267 (2021)

Tests used:
[1] = target: Mitogen-activated protein kinase kinase kinase 20 (Homo sapiens) (UniProt Q9NYL2); settings: Compound concentration 1000.0 nM
[2] = target: Serine/threonine-protein kinase pim-3 (Homo sapiens) (UniProt Q86V86); settings: Compound concentration 1000.0 nM
[3] = target: Vascular endothelial growth factor receptor 2 (Homo sapiens) (UniProt P35968); settings: Compound concentration 1000.0 nM
[4] = target: Ephrin type-A receptor 5 (Homo sapiens) (UniProt P54756); settings: Compound concentration 1000.0 nM
[5] = test system: Epidermal growth factor receptor (Homo sapiens), P00533 [L861Q]; settings: Compound concentration 1000.0 nM
[6] = target: Serine/threonine-protein kinase Nek9 (Homo sapiens) (UniProt Q8TD19); settings: Compound concentration 1000.0 nM
[7] = target: Calcium/calmodulin-dependent protein kinase type 1D (Homo sapiens) (UniProt Q8IU85); settings: Compound concentration 1000.0 nM
[8] = target: Serine/threonine-protein kinase tousled-like 1 (Homo sapiens) (UniProt Q9UKI8); settings: Compound concentration 1000.0 nM
[9] = test system: Phosphatidylinositol 4,5-bisphosphate 3-kinase catalytic subunit alpha isoform (Homo sapiens), P42336 [E545K]; settings: Compound concentration 1000.0 nM
[10] = target: Mitogen-activated protein kinase kinase kinase kinase 4 (Homo sapiens) (UniProt O95819); settings: Compound concentration 1000.0 nM
[11] = test system: Tyrosine-protein kinase ABL1 (Homo sapiens), P00519 [F317I]; settings: Compound concentration 1000.0 nM
[12] = test system: Serine/threonine-protein kinase B-raf (Homo sapiens), P15056 [V600E]; settings: Compound concentration 1000.0 nM
[13] = target: 5-hydroxytryptamine receptor 6 (Homo sapiens) (UniProt P50406); settings: Compound concentration 10.0 uM
[14] = target: Ribosomal protein S6 kinase alpha-3 (Homo sapiens) (UniProt P51812); settings: Compound concentration 1000.0 nM
[15] = target: Platelet-derived growth factor receptor beta (Homo sapiens) (UniProt P09619); settings: Compound concentration 1000.0 nM
[16] = target: Serine/threonine-protein kinase D1 (Homo sapiens) (UniProt Q15139); settings: Compound concentration 1000.0 nM
[17] = target: Cyclin-dependent kinase 4 (Homo sapiens) (UniProt P11802); settings: Compound concentration 1000.0 nM
[18] = target: Mitogen-activated protein kinase 1 (Homo sapiens) (UniProt P28482); settings: Compound concentration 1000.0 nM
[19] = target: Calcium/calmodulin-dependent protein kinase type 1G (Homo sapiens) (UniProt Q96NX5); settings: Compound concentration 1000.0 nM
[20] = target: Serine/threonine-protein kinase RIO1 (Homo sapiens) (UniProt Q9BRS2); settings: Compound concentration 1000.0 nM
[21] = target: Macrophage-stimulating protein receptor (Homo sapiens) (UniProt Q04912); settings: Compound concentration 1000.0 nM
[22] = target: Atypical kinase COQ8A, mitochondrial (Homo sapiens) (UniProt Q8NI60); settings: Compound concentration 1000.0 nM
[23] = target: Serine/threonine-protein kinase SIK2 (Homo sapiens) (UniProt Q9H0K1); settings: Compound concentration 1000.0 nM
[24] = target: Ribosomal protein S6 kinase alpha-2 (Homo sapiens) (UniProt Q15349); settings: Compound concentration 1000.0 nM
[25] = test system: Leucine-rich repeat serine/threonine-protein kinase 2 (Homo sapiens), Q5S007 [G2019S]; settings: Compound concentration 1000.0 nM
[26] = target: D(1B) dopamine receptor (Homo sapiens) (UniProt P21918); settings: Compound concentration 10.0 uM
[27] = target: Mu-type opioid receptor (Homo sapiens) (UniProt P35372); settings: Compound concentration 10.0 uM
[28] = target: Angiopoietin-1 receptor (Homo sapiens) (UniProt Q02763); settings: Compound concentration 1000.0 nM
[29] = test system: Epidermal growth factor receptor (Homo sapiens), P00533 [UNDEFINED MUTATION]; settings: Compound concentration 1000.0 nM
[30] = target: Phosphatidylinositol 5-phosphate 4-kinase type-2 gamma (Homo sapiens) (UniProt Q8TBX8); settings: Compound concentration 1000.0 nM
[31] = target: Mitogen-activated protein kinase 12 (Homo sapiens) (UniProt P53778); settings: Compound concentration 1000.0 nM
[32] = target: Myosin light chain kinase 2, skeletal/cardiac muscle (Homo sapiens) (UniProt Q9H1R3); settings: Compound concentration 1000.0 nM
[33] = target: 5-hydroxytryptamine receptor 2B (Homo sapiens) (UniProt P41595); settings: Compound concentration 10.0 uM
[34] = target: Interleukin-1 receptor-associated kinase 4 (Homo sapiens) (UniProt Q9NWZ3); settings: Compound concentration 1000.0 nM
[35] = target: Tyrosine-protein kinase FRK (Homo sapiens) (UniProt P42685); settings: Compound concentration 1000.0 nM
[36] = target: Mitogen-activated protein kinase kinase kinase kinase 3 (Homo sapiens) (UniProt Q8IVH8); settings: Compound concentration 1000.0 nM
[37] = test system: Receptor-type tyrosine-protein kinase FLT3 (Homo sapiens), P36888 [UNDEFINED MUTATION]; settings: Compound concentration 1000.0 nM
[38] = target: Receptor-type tyrosine-protein kinase FLT3 (Homo sapiens) (UniProt P36888); settings: Compound concentration 1000.0 nM
[39] = target: Activin receptor type-1 (Homo sapiens) (UniProt Q04771); settings: Compound concentration 1000.0 nM
[40] = target: Serine/threonine-protein kinase DCLK3 (Homo sapiens) (UniProt Q9C098); settings: Compound concentration 1000.0 nM
[41] = target: Death-associated protein kinase 1 (Homo sapiens) (UniProt P53355); settings: Compound concentration 1000.0 nM
[42] = target: Serine/threonine-protein kinase LATS1 (Homo sapiens) (UniProt O95835); settings: Compound concentration 1000.0 nM
[43] = target: Cyclin-dependent kinase 18 (Homo sapiens) (UniProt Q07002); settings: Compound concentration 1000.0 nM
[44] = target: Bone morphogenetic protein receptor type-1B (Homo sapiens) (UniProt O00238); settings: Compound concentration 1000.0 nM
[45] = target: 5-hydroxytryptamine receptor 5A (Homo sapiens) (UniProt P47898); settings: Compound concentration 10.0 uM

Sequence of Mitogen-activated protein kinase kinase kinase kinase 4 (Homo sapiens) (O95819 2-1239 limits assumed): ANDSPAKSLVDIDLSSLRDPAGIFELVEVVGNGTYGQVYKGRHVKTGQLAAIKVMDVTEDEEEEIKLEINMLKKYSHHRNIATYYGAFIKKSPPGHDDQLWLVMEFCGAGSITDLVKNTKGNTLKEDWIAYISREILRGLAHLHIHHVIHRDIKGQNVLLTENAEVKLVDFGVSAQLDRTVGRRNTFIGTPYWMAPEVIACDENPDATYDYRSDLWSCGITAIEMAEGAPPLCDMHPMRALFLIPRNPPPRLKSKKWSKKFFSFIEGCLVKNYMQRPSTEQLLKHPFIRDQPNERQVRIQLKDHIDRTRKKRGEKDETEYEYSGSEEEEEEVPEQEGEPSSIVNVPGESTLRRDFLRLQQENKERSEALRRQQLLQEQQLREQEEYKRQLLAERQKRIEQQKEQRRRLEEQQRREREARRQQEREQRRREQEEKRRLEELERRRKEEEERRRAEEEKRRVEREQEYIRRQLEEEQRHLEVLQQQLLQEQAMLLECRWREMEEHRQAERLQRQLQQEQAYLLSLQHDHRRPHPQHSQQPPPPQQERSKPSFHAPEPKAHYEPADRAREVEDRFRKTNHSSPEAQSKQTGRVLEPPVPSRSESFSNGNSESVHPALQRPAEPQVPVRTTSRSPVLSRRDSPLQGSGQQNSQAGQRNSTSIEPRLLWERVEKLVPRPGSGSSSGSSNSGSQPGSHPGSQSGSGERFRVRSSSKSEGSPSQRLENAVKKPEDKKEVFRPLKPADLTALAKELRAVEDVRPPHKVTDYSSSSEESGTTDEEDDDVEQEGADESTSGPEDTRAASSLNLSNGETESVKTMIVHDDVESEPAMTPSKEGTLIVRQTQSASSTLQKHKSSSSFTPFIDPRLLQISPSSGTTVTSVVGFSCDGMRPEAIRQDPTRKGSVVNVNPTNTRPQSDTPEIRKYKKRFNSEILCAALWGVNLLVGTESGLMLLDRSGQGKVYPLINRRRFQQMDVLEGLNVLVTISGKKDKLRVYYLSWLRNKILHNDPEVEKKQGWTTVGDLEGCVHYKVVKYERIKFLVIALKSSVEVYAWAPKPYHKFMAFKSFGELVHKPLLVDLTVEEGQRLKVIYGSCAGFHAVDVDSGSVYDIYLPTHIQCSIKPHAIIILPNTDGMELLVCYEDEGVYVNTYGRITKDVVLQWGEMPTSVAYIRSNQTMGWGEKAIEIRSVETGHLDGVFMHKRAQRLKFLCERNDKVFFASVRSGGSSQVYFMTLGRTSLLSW
Sequence of Serine/threonine-protein kinase B-raf (Homo sapiens), P15056 [V600E] (P15056 whole entry V600E): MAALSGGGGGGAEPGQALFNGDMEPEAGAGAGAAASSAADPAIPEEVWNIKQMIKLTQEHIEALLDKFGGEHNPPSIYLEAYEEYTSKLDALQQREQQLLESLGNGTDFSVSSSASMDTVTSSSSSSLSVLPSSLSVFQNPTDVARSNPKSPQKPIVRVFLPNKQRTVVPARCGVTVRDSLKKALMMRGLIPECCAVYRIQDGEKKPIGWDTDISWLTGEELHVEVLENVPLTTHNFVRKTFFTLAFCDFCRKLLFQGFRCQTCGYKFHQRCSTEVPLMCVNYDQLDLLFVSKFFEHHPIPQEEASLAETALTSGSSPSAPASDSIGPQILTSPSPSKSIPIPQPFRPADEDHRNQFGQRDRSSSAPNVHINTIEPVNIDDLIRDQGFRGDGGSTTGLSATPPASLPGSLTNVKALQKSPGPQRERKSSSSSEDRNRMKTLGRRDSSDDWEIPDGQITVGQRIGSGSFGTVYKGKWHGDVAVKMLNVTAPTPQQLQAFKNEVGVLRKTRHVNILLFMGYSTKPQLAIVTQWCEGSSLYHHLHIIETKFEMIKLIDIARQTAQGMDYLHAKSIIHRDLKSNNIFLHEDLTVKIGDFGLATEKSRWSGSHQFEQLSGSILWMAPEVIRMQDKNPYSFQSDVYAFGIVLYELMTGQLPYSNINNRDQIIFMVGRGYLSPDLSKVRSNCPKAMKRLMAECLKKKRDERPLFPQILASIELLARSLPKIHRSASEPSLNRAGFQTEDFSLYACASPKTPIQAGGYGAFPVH
Sequence of Ephrin type-A receptor 5 (Homo sapiens) (P54756 whole entry): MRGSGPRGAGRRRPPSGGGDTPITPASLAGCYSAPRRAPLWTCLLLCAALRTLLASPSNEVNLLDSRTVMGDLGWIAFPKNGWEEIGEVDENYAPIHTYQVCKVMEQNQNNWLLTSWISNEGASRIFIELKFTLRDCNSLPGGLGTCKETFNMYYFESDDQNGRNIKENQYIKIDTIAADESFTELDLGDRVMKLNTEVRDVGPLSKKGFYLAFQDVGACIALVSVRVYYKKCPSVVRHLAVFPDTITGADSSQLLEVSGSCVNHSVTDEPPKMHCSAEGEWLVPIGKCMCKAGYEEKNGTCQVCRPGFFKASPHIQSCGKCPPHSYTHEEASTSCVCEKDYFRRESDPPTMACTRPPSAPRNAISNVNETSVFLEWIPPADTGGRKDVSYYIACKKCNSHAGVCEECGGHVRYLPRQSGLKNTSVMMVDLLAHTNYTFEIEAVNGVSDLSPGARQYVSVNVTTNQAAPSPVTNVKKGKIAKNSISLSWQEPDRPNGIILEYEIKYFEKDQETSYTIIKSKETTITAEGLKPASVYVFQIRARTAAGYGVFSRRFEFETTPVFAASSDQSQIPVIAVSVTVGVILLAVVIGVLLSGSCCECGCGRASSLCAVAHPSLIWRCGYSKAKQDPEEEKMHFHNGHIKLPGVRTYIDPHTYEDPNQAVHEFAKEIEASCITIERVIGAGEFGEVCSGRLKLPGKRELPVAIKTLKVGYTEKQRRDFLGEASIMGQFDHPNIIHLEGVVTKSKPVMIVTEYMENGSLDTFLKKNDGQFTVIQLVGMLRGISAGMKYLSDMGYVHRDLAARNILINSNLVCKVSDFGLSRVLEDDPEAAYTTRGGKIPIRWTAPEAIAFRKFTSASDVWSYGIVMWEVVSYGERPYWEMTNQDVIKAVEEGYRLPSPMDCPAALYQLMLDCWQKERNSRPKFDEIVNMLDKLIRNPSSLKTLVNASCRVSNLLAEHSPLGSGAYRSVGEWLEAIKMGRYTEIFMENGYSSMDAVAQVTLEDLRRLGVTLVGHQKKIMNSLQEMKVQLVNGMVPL
Sequence of Mitogen-activated protein kinase 1 (Homo sapiens) (P28482 whole entry): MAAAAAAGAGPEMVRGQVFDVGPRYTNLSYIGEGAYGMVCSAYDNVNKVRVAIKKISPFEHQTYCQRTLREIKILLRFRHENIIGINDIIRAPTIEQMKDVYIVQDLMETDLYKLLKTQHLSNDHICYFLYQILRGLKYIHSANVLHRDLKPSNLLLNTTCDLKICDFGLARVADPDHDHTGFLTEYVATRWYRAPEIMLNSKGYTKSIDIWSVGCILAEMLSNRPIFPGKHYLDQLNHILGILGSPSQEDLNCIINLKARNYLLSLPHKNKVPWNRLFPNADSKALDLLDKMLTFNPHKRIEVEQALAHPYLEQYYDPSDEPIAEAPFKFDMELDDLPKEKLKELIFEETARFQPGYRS
Sequence of Calcium/calmodulin-dependent protein kinase type 1G (Homo sapiens) (Q96NX5 whole entry): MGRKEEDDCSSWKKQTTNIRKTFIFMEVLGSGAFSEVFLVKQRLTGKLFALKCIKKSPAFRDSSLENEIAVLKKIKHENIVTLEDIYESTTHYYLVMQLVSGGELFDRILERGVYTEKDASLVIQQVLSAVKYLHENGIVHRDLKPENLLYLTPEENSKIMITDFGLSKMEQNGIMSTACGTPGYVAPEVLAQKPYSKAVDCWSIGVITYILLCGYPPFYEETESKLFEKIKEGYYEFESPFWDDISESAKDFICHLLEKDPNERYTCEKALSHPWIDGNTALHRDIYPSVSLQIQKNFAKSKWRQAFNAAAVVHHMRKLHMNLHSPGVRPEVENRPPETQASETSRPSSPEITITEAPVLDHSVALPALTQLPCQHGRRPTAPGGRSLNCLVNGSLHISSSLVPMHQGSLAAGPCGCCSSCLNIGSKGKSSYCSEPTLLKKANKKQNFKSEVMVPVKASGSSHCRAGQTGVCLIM
Sequence of Serine/threonine-protein kinase SIK2 (Homo sapiens) (Q9H0K1 whole entry, looked up): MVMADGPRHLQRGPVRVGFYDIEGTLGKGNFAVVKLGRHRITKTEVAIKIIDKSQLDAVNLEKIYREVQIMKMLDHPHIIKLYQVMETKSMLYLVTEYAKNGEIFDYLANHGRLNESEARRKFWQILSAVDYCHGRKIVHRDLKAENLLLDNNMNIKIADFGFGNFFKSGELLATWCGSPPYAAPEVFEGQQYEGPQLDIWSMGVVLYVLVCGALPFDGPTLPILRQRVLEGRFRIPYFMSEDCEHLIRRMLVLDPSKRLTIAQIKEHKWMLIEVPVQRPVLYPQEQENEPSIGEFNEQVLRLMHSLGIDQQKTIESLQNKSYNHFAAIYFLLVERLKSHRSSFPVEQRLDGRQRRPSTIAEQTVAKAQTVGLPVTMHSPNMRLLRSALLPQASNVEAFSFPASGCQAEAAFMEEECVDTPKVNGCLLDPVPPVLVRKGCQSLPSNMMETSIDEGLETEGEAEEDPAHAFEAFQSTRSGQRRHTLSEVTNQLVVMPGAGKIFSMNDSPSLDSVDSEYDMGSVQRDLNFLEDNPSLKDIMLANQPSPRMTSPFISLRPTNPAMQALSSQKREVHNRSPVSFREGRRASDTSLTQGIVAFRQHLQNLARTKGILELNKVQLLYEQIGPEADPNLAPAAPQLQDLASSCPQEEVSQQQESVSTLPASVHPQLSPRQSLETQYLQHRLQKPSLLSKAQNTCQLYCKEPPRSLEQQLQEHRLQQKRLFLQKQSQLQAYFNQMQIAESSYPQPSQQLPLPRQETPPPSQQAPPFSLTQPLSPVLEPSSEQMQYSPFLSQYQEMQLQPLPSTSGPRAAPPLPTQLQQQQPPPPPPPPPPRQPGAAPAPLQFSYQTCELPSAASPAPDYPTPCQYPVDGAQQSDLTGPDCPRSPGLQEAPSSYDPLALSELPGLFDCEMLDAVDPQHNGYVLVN

Cc1c(NC(=O)c2cc(C(N)=O)nc3cc(F)ccc23)c(C(F)(F)F)nn1Cc1ccc(C(C)(C)C)cc1 [BAY-588]
inactive: residual activity [1] 100% | residual activity [2] 100% | residual activity [3] 100% | residual activity [4] 74% | residual activity [5] 65% | residual activity [6] 100% | residual activity [7] 84% | residual activity [8] 100% | residual activity [9] 100% | residual activity [10] 76% | residual activity [11] 100% | residual activity [12] 98% | inhibition [13] -0.431% | residual activity [14] 100% | residual activity [15] 76% | residual activity [16] 100% | residual activity [17] 100% | residual activity [18] 71% | residual activity [19] 100% | residual activity [20] 93% | residual activity [21] 80% | residual activity [22] 85% | residual activity [23] 100% | residual activity [24] 100% | residual activity [25] 100% | inhibition [26] 2.96% | inhibition [27] 4.84% | residual activity [28] 94% | residual activity [29] 75% | residual activity [30] 76% | residual activity [31] 56% | residual activity [32] 87% | inhibition [33] -8.78% | residual activity [34] 100% | residual activity [35] 90% | residual activity [36] 98% | residual activity [37] 100% | residual activity [38] 100% | residual activity [39] 100% | residual activity [40] 100% | residual activity [41] 100% | residual activity [42] 100% | residual activity [43] 88% | residual activity [44] 82% | inhibition [45] 8.32%

Cc1c(NC(=O)c2cc(C(N)=O)nc3cc(F)ccc23)c(C(F)(F)F)nn1Cc1ccc(C#N)cc1 [BAY-876]
inactive: residual activity [1] 100% | residual activity [2] 100% | residual activity [3] 80% | residual activity [4] 100% | residual activity [5] 67% | residual activity [6] 95% | residual activity [7] 100% | residual activity [8] 79% | residual activity [9] 73% | residual activity [10] 84% | residual activity [11] 75% | residual activity [12] 90% | inhibition [13] -0.383% | residual activity [14] 87% | residual activity [15] 87% | residual activity [16] 100% | residual activity [17] 81% | residual activity [18] 100% | residual activity [19] 75% | residual activity [20] 93% | residual activity [21] 76% | residual activity [22] 82% | residual activity [23] 100% | residual activity [24] 86% | residual activity [25] 100% | inhibition [26] -0.829% | inhibition [27] 6.68% | residual activity [28] 92% | residual activity [29] 79% | residual activity [30] 100% | residual activity [31] 86% | residual activity [32] 90% | inhibition [33] 11.1% | residual activity [34] 84% | residual activity [35] 100% | residual activity [36] 99% | residual activity [37] 95% | residual activity [38] 83% | residual activity [39] 87% | residual activity [40] 92% | residual activity [41] 86% | residual activity [42] 94% | residual activity [43] 100% | residual activity [44] 77% | inhibition [45] -2.35%
